Experimental data published in patent publication US4335249A, “Herbicidal diphenyl ethers, sulfides, sulfoxides and sulfones” (Rohm and Haas Company, priority 1976, dated 1982).

Experiments:
Format in all cases: in vivo
[1] = tested on: cocklebur (Xanthium pensylvanicum); test: Preemergence herbicidal activity, cocklebur; conditions: Xanthium strumarium, pre-emergence, 336 h, 2 lb/A
Method: (§1) Using the procedure described below, compounds of the invention are evaluated for control of several of the following plant species:
(§2) The following est procedure is employed. Seeds of selected crops and weeds are planted in soil in flats. For preemergence tests, the flats are treated with the test compound immediately after the planting. For postemergence tests, the seeds are allowed to germinate, and after two weeks the flats are treated with the test compound. The compound to be evaluated is dissolved in acetone, diluted with water, and sprayed over the flats using a carrier volume equivalent to 50 gallons per acre at the rate of application (pounds per acre, lb/A.) specified in the tables. About two weeks after the application of the test compound, the state of growth of the plants is observed and the phytotoxic effect of the compound is evaluated. Tables III and IV give the average percent control achieved by test compounds in terms of the percent of the plants which are killed by the compounds.

marigold (Tagetes spp.) [2] = test: Preemergence herbicidal activity, marigold; conditions: pre-emergence, 336 h, 2 lb/A
Method: as §1, §2

[3] = tested on: morningglory (Ipomoca spp.); test: Preemergence herbicidal activity, morningglory; conditions: Ipomoea, pre-emergence, 336 h, 2 lb/A
Method: as §1, §2

[4] = tested on: tomato (Lycopersicon esculentum); test: Preemergence herbicidal activity, tomato; conditions: Solanum lycopersicum, pre-emergence, 336 h; Pre, 2 lb/A
Method: as §1, §2

[5] = tested on: velvetleaf (Abutilon theophrasti); test: Preemergence herbicidal activity, velvetleaf; conditions: Abutilon theophrasti, pre-emergence, 336 h; Pre, 2 lb/A
Method: as §1, §2

[6] = tested on: barnyardgrass (Echinochloa crusgalli); test: Preemergence herbicidal activity, barnyardgrass; conditions: Echinochloa crus-galli, pre-emergence, 336 h; Pre, 2 lb/A
Method: as §1
(§3) The following est procedure is employed. Seeds of selected crops and weeds are planted in soil in flats. For preemergence tests, the flats are treated with the test compound immediately after the planting. For postemergence tests, the seeds are allowed to germinate, and after two weeks the flats are treated with the test compound. The compound to be evaluated is dissolved in acetone, diluted with water, and sprayed over the flats using a carrier volume equivalent to 50 gallons per acre at the rate of application (pounds per acre, lb/A.) specified in the tables.

[7] = tested on: downybrome (Bromus tectorum); test: Preemergence herbicidal activity, downybrome; conditions: Bromus tectorum, pre-emergence, 336 h, Pre, 2 lb/A
Method: as §1, §2

foxtail (Setaria spp.) [8] = test: Preemergence herbicidal activity, foxtail; conditions: Setaria, pre-emergence, 336 h; Pre, 2 lb/A
Method: as §1, §2

[9] = tested on: yellow nutsedge (Cyperus esculentus); test: Preemergence herbicidal activity, yellow nutsedge; conditions: Cyperus, pre-emergence, 336 h, 2 lb/A
Method: as §1, §2

wild oats (Avena fatua) [10] = test: Preemergence herbicidal activity, wild oats; conditions: Avena fatua, pre-emergence, 336 h, Pre, 2 lb/A; read-out: % control, Wild oat
Method: as §1, §2

[11] = tested on: cocklebur (Xanthium pensylvanicum); test: Postemergence herbicidal activity, cocklebur; conditions: Xanthium strumarium, post-emergence, 336 h, 2 lb/A
Method: as §1, §2

marigold (Tagetes spp.) [12] = test: Postemergence herbicidal activity, marigold; conditions: post-emergence, 336 h, 2 lb/A
Method: as §1, §2

[13] = tested on: morningglory (Ipomoca spp.); test: Postemergence herbicidal activity, morningglory; conditions: Ipomoea, post-emergence, 336 h, 2 lb/A
Method: as §1, §2

[14] = tested on: tomato (Lycopersicon esculentum); test: Postemergence herbicidal activity, tomato; conditions: Solanum lycopersicum, post-emergence, 336 h, Post, 2 lb/A
Method: as §1, §2

[15] = tested on: velvetleaf (Abutilon theophrasti); test: Postemergence herbicidal activity, velvetleaf; conditions: Abutilon theophrasti, post-emergence, 336 h, 2 lb/A
Method: as §1, §3

[16] = tested on: barnyardgrass (Echinochloa crusgalli); test: Postemergence herbicidal activity, barnyardgrass; conditions: Echinochloa crus-galli, post-emergence, 336 h; Post, 2 lb/A
Method: as §1, §3

[17] = tested on: downybrome (Bromus tectorum); test: Postemergence herbicidal activity, downybrome; conditions: Bromus tectorum, post-emergence, 336 h, Post, 2 lb/A
Method: as §1, §2

foxtail (Setaria spp.) [18] = test: Postemergence herbicidal activity, foxtail; conditions: Setaria, post-emergence, 336 h, Post, 2 lb/A
Method: as §1, §2

[19] = tested on: yellow nutsedge (Cyperus esculentus); test: Postemergence herbicidal activity, yellow nutsedge; conditions: Cyperus, post-emergence, 336 h, 2 lb/A
Method: as §1, §2

wild oats (Avena fatua) [20] = test: Postemergence herbicidal activity, wild oats; conditions: Avena fatua, post-emergence, 336 h, Post, 2 lb/A; read-out: % control, Wild oat
Method: as §1, §2

| Compound | pest or weed control at 2241.7 g/ha [1] | pest or weed control at 2241.7 g/ha (marigold (Tagetes spp.) [2]) | pest or weed control at 2241.7 g/ha [3] | pest or weed control at 2241.7 g/ha [4] | pest or weed control at 2241.7 g/ha [5] | pest or weed control at 2241.7 g/ha [6] | pest or weed control at 2241.7 g/ha [7] | pest or weed control at 2241.7 g/ha (foxtail (Setaria spp.) [8]) | pest or weed control at 2241.7 g/ha [9] | pest or weed control at 2241.7 g/ha (wild oats (Avena fatua) [10]) | pest or weed control at 2241.7 g/ha [11] | pest or weed control at 2241.7 g/ha (marigold (Tagetes spp.) [12]) | pest or weed control at 2241.7 g/ha [13] | pest or weed control at 2241.7 g/ha [14] | pest or weed control at 2241.7 g/ha [15] | pest or weed control at 2241.7 g/ha [16] | pest or weed control at 2241.7 g/ha [17] | pest or weed control at 2241.7 g/ha (foxtail (Setaria spp.) [18]) | pest or weed control at 2241.7 g/ha [19] | pest or weed control at 2241.7 g/ha (wild oats (Avena fatua) [20]) |
| --- | --- | --- | --- | --- | --- | --- | --- | --- | --- | --- | --- | --- | --- | --- | --- | --- | --- | --- | --- | --- |
| CC(Oc1ccc(Oc2ccc(C(F)(F)F)cc2)cc1)C(N)=O (centres unmarked) [Example 40, 2-[4-(4-trifluoromethylphenoxy)phenoxy] propanamide] | 0% | 0% | 0% | 0% | 0% | 99% | 80% | 100% | 0% | 60% | 20% | 0% | 0% | 0% | 0% | 99% | 40% | 95% | 0% | 95% |
| CC(C)COC(=O)C(C)Oc1ccc(Oc2ccc(C(F)(F)F)cc2Cl)cc1 (centres unmarked) [Example 33] | 0% | 0% | 0% | 0% | 0% | 99% | 90% | 100% | 0% | 90% | 0% | 0% | 0% | 0% | 0% | 100% | 100% | 100% | 0% | 100% |
| CCC(C)OC(=O)C(C)Oc1ccc(Oc2ccc(C(F)(F)F)cc2Cl)cc1 (centres unmarked) [Example 34] | 0% | 0% | 0% | 0% | 0% | 100% | 95% | 100% | 0% | 80% | 0% | 0% | 0% | 0% | 0% | 100% | 99% | 100% | 0% | 100% |
| CCOC(=O)C(CC)Oc1ccc(Oc2ccc(C(F)(F)F)cc2Cl)cc1 (centres unmarked) [Example 20] | 0% | 0% | 0% | 0% | 0% | 99% | 90% | 100% | 0% | 40% | 0% | 0% | 0% | 30% | 50% | 100% | 30% | 100% | 20% | 100% |
